One assay deals with T1, Human PKMYT1 (Homo sapiens, UniProt Q99640).
T1 construct: Human PKMYT1 75-362 was cloned as a TEV cleavable 6xHis fusion; 6xHis (TEV cleavable) (cleaved yes); made in house; host or cells: bacterial cells
T1 sequence (Q99640 75-362): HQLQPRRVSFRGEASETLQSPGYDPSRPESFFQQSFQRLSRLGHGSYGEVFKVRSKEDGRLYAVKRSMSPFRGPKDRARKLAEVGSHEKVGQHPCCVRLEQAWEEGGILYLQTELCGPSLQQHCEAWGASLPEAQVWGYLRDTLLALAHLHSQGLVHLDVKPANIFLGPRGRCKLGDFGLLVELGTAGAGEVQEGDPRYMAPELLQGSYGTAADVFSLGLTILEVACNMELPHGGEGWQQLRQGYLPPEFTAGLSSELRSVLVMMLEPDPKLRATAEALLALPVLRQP
The assay can be described thus: PKMYT1 biochemical ADP-Glo enzymatic assay. The following applies: ADP-Glo. In outline: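 Intrinsic ATPase activity of E. coli-expressed, tag-cleaved human PKMYT1 kinase domain (75-362), 15 nM, with 500 µM ATP in HEPES pH 7.5/MgCl2/EGTA/Brij-35, 1% DMSO, 60 min at 26 °C. ADP formed was read by ADP-Glo Max luminescence; IC50 from 10-point, 3-fold dilution curves.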

The target of the next assay is T2, WEE1 (Homo sapiens, UniProt P30291).
T2 construct: purchased Thermo Fisher PR7373A
The assay can be described thus: Selectivity versus WEE1 assay (ADP-Glo enzymatic assay). Type of assay: biochemical. The following applies: for pIC50: ADP-Glo; for PKMYT1 vs. WEE1 selectivity: fold difference in selectivity for PKMYT1 over WEE1. Summed up:
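Kinase at 15 nM final in 50 mM HEPES pH 7.5, 10 mM MgCl2, 1 mM EGTA, 0.01% Brij-35, 1% DMSO was started with 30 µM ATP and run 60 min at 26° C. ADP formed was read by ADP-Glo luminescence; IC50 came from dose-response curves.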
(In general: In ADP-Glo the light output rises with the ADP produced.)

Setting [1] is: 15 nM PKMYT1 kinase domain, 500 µM ATP, 60 minutes at 26° C., banded.
The mark [2] stands for this setting: 15 nM WEE1, 60 minutes at 26° C., banded.
The mark [3] stands for this setting: banded, ">N" = at least in this band but could be higher.
Where [4] appears, read: PKMYT1 kinase domain 15 nM, banded values.

For orientation: pIC50 means −log10 of the IC50, conventionally taken in molar units. A lower pIC50 goes with a high IC50.

pIC50: −log10 of the molar value. Structures can show the parent of a compound that is named as a salt.

T2 sequence (P30291 whole entry): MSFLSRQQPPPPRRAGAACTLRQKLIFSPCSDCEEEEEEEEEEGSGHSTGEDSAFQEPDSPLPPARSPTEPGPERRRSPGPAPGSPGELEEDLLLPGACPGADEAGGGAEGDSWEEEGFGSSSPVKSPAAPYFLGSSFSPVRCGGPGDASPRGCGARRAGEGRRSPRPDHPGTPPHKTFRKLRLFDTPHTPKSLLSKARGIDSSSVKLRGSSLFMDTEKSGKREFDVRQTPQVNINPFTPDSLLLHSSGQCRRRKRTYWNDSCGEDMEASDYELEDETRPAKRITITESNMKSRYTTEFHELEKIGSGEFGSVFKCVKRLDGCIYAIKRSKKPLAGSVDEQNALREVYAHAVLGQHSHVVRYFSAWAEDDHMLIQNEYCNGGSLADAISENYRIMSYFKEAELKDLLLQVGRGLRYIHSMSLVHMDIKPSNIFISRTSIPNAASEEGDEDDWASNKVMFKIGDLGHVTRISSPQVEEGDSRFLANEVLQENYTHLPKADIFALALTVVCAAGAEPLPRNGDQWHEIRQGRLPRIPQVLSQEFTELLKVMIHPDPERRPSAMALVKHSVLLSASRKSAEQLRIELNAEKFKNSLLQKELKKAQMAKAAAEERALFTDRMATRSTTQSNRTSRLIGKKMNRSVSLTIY

As for `Cc1ccc(O)c(C)c1NC(=O)c1cnc(Nc2ccn([C@H]3CCCNC3)n2)s1` [BAA-054, N-(3-hydroxy-2,6-dimethyl-phenyl)-2-[1-[(3S)-3-piperidyl]pyrazol-3-yllamino]thiazole-5-carboxamide (hydrochloride)], the negative logarithm of the IC50 (pIC50) on Human PKMYT1 (setting [1]) is 4.96 to 6.00; on WEE1 (setting [2]), less than 4.96. Further, on WEE1 (setting [3]), the “PKMYT1 vs. WEE1 selectivity” value is “W (10-<100 fold)”.
For the molecule `Cc1ccc(O)c(C)c1NC(=O)c1cnc(Nc2ccn(CC(=O)N3CCC[C@@H](O)C3)n2)s1` [BAA-161], the pIC50 was greater than 7.30 at Human PKMYT1 (setting [1]) and less than 4.96 against WEE1 (setting [2]). The “PKMYT1 vs. WEE1 selectivity” value at WEE1 (setting [3]) is listed as “Y (1000-5000 fold)”.
The like results for `Cc1ccc(O)c(C)c1NC(=O)c1cnc(Nc2ccn(CC(=O)N3CC4(CCC4)C3)n2)s1` [BAA-199] were, in that order, greater than 7.30, 4.96 to 6.00 and “Y (1000-5000 fold)”.
In the case of `Cc1ccc(O)c(C)c1NC(=O)c1cnc(Nc2cn(C)nc2C)s1` [BAA-521, 2-((1,3-dimethyl-1H-pyrazol-4-yl)amino)-N-(3-hydroxy-2,6-dimethylphenyl)thiazole-5-carboxamide], the negative-log IC50 (pIC50) against Human PKMYT1 (setting [4]) is 6.00 to 7.30; against WEE1 (WEE1 15 nM, banded values), less than 4.96. In addition, the “PKMYT1 vs. WEE1 selectivity” value on WEE1 (banded) is “X (100-<1000 fold)”.
Take `Cc1ccc(O)c(C)c1NC(=O)c1cnc(NCc2cc3ccccc3[nH]2)s1` [BAA-357, 2-(((1H-indol-2-yl)methyl)amino)-N-(3-hydroxy-2,6-dimethylphenyl)thiazole-5-carboxamide]: the negative-log IC50 (pIC50) on Human PKMYT1 (setting [1]) was 6.00 to 7.30; against WEE1 (setting [2]) it was less than 4.96. For the same molecule, the “PKMYT1 vs. WEE1 selectivity” value at WEE1 (setting [3]) was “X (100-<1000 fold)”.
As to `Cc1ccc(O)c(C)c1NC(=O)c1cnc(Nc2ccn(C(F)F)n2)s1` [BAA-025, 2-[[1-(difluoromethyl)pyrazol-3-yl]amino]-N-(3-hydroxy-2,6-dimethyl-phenyl)thiazole-5-carboxamide], the pIC50 was 6.00 to 7.30 at Human PKMYT1 (setting [1]) and less than 4.96 at WEE1 (setting [2]). The “PKMYT1 vs. WEE1 selectivity” value at WEE1 (setting [3]) is “X (100-<1000 fold)”.
Regarding `CCN1CCN(C(=O)Cn2ccc(Nc3ncc(C(=O)Nc4c(C)ccc(O)c4C)s3)n2)CC1` [BAA-177], the pIC50 was greater than 7.30 against Human PKMYT1 (setting [1]) and less than 4.96 against WEE1 (setting [2]). For the same molecule, the “PKMYT1 vs. WEE1 selectivity” value at WEE1 (setting [3]) is reported as “X (100-<1000 fold)”.
As for `Cc1ccc(O)c(C)c1NC(=O)c1cnc(Nc2cc(C)n(C3CCS(=O)(=O)C3)n2)s1` (stereo not drawn) [BAA-564, 2-[[1-(1,1-Dioxothiolan-3-yl)-5-methyl-pyrazol-3-yl]amino]-N-(3-hydroxy-2,6-dimethyl-phenyl)thiazole-5-carboxamide], the pIC50 is 6.00 to 7.30 at Human PKMYT1 (setting [4]) and 4.96 to 6.00 at WEE1 (WEE1 15 nM, banded values). The “PKMYT1 vs. WEE1 selectivity” value at WEE1 (banded) is “W (10-<100 fold)”.
In the case of `Cc1ccc(O)c(C)c1NC(=O)c1cnc(Nc2cccc(C(=O)NC(C(C)C)C(F)(F)F)c2)s1` (stereo not drawn) [BAA-259, N-(3-hydroxy-2,6-dimethylphenyl)-2-((3-((1,1,1-trifluoro-3-methylbutan-2-yl)carbamoyl)phenyl)amino)thiazole-5-carboxamide], the negative-log IC50 (pIC50) was 6.00 to 7.30 at Human PKMYT1 (setting [1]) and less than 4.96 at WEE1 (setting [2]). For the same molecule, at WEE1 (setting [3]), the “PKMYT1 vs. WEE1 selectivity” value is on record as “X (100-<1000 fold)”.
Consider `Cc1ccc(O)c(C)c1NC(=O)c1cnc(Nc2ccn(CC(=O)N3CCC(F)(F)CC3)n2)s1` [BAA-136, 2-[[1-[2-(4,4-difluoro-1-piperidyl)-2-oxo-ethyl]pyrazol-3-yl]amino]-N-(3-hydroxy-2,6-dimethyl-phenyl)thiazole-5-carboxamide], for which the pIC50 at Human PKMYT1 (setting [1]) was greater than 7.30; against WEE1 (setting [2]), less than 4.96. Besides, the “PKMYT1 vs. WEE1 selectivity” value on WEE1 (setting [3]) is listed as “Y (1000-5000 fold)”.
Regarding `Cc1ccc(O)c(C)c1NC(=O)c1cnc(Nc2ccn([C@@H]3CCN(C(=O)CC4CCOCC4)C3)n2)s1` [BAA-090], the negative logarithm of the IC50 (pIC50) is 6.00 to 7.30 on Human PKMYT1 (setting [1]) and less than 4.96 at WEE1 (setting [2]). In addition, on WEE1 (setting [3]), the “PKMYT1 vs. WEE1 selectivity” value is recorded as “>X (100-<1000 fold)”.
For `Cc1ccc(O)c(C)c1NC(=O)c1cnc(Nc2ccn(CC(=O)N3CCC[C@H](O)C3)n2)s1` [BAA-163] the same measures were greater than 7.30, less than 4.96 and “Y (1000-5000 fold)”.
With `Cc1ccc(O)c(C)c1NC(=O)c1cnc(Nc2ccn(CC(=O)N3C[C@@H](C)N[C@@H](C)C3)n2)s1` [BAA-227, 2-((1-(2-((3R,5S)-3,5-dimethylpiperazin-1-yl)-2-oxoethyl)-1H-pyrazol-3-yl)amino)-N-(3-hydroxy-2,6-dimethylphenyl)thiazole-5-carboxamide], the pIC50 on Human PKMYT1 (setting [1]) is greater than 7.30; against WEE1 (setting [2]) it was less than 4.96. On WEE1 (setting [3]), the “PKMYT1 vs. WEE1 selectivity” value is “X (100-<1000 fold)”.
On to `Cc1ccc(O)c(C)c1NC(=O)c1cnc(Nc2nccc3ccncc23)s1` [BAA-602, 2-((2,7-naphthyridin-1-yl)amino)-N-(3-hydroxy-2,6-dimethylphenyl)thiazole-5-carboxamide], for which the pIC50 at Human PKMYT1 (setting [4]) was 6.00 to 7.30; against WEE1 (WEE1 15 nM, banded values) it was less than 4.96. Further, at WEE1 (banded), the “PKMYT1 vs. WEE1 selectivity” value was “X (100-<1000 fold)”.
Turning to `Cn1ccc(Nc2ncc(C(=O)Nc3c(F)ccc(O)c3F)s2)n1` [BAA-249, N-(2,6-difluoro-3-hydroxyphenyl)-2-((1-methyl-1H-pyrazol-3-yl)amino)thiazole-5-carboxamide], the negative-log IC50 (pIC50) was 6.00 to 7.30 against Human PKMYT1 (setting [1]) and less than 4.96 against WEE1 (setting [2]). Also, on WEE1 (setting [3]), the “PKMYT1 vs. WEE1 selectivity” value was “X (100-<1000 fold)”.
On to `Cc1c(O)cc(Br)c(C)c1NC(=O)c1cnc(Nc2cc(C)n(C3CCS(=O)(=O)C3)n2)s1` (stereo not drawn) [BAA-563, N-(3-Bromo-5-hydroxy-2,6-dimethyl-phenyl)-2-[[1-(1,1-dioxothiolan-3-yl)-5-methyl-pyrazol-3-yl]amino]thiazole-5-carboxamide], for which the pIC50 against Human PKMYT1 (setting [4]) is 6.00 to 7.30; at WEE1 (WEE1 15 nM, banded values) it was 4.96 to 6.00. Besides, the “PKMYT1 vs. WEE1 selectivity” value on WEE1 (banded) was “W (10-<100 fold)”.
Regarding `Cc1ccc(O)c(C)c1NC(=O)c1cnc(Nc2nccc3ncccc23)s1` [BAA-603, 2-((1,6-naphthyridin-5-yl)amino)-N-(3-hydroxy-2,6-dimethylphenyl)thiazole-5-carboxamide], the negative logarithm of the IC50 (pIC50) is 6.00 to 7.30 against Human PKMYT1 (setting [4]) and less than 4.96 on WEE1 (WEE1 15 nM, banded values). Also, the “PKMYT1 vs. WEE1 selectivity” value on WEE1 (banded) is given as “X (100-<1000 fold)”.
Turning to `Cc1cn(Cc2ncco2)nc1Nc1ncc(C(=O)Nc2c(C)ccc(O)c2C)s1` [BAA-366, N-(3-hydroxy-2,6-dimethylphenyl)-2-((4-methyl-1-(oxazol-2-ylmethyl)-1H-pyrazol-3-yl)amino) thiazole-5-carboxamide], the pIC50 at Human PKMYT1 (setting [1]) was greater than 7.30; against WEE1 (setting [2]), 4.96 to 6.00. Besides, on WEE1 (setting [3]), the “PKMYT1 vs. WEE1 selectivity” value is listed as “X (100-<1000 fold)”.
As to `CCc1ccccc1Nc1ncc(C(=O)Nc2c(C)ccc(O)c2C)s1` [BAA-484, 2-((2-ethylphenyl)amino)-N-(3-hydroxy-2,6-dimethylphenyl)thiazole-5-carboxamide], the pIC50 was 6.00 to 7.30 at Human PKMYT1 (setting [4]) and less than 4.96 at WEE1 (WEE1 15 nM, banded values). Further, the “PKMYT1 vs. WEE1 selectivity” value at WEE1 (banded) was “X (100-<1000 fold)”.
With `Cc1ccc(O)c(C)c1NC(=O)c1cnc(Nc2cccc(C3=NCCO3)c2)s1` [BAA-461, 2-((3-(4,5-dihydrooxazol-2-yl)phenyl)amino)-N-(3-hydroxy-2,6-dimethylphenyl)thiazole-5-carboxamide], the negative-log IC50 (pIC50) against Human PKMYT1 (setting [4]) is greater than 7.30; on WEE1 (WEE1 15 nM, banded values), 4.96 to 6.00. The “PKMYT1 vs. WEE1 selectivity” value on WEE1 (banded) is on record as “X (100-<1000 fold)”.
Regarding `Cc1ccc(O)c(C)c1NC(=O)c1cnc(Nc2ccc(C(F)(F)F)cc2)s1` [BAA-278, N-(3-hydroxy-2,6-dimethylphenyl)-2-((4-(trifluoromethyl)phenyl)amino)thiazole-5-carboxamide], the pIC50 on Human PKMYT1 (setting [1]) is 4.96 to 6.00; on WEE1 (setting [2]), less than 4.96. Moreover, at WEE1 (setting [3]), the “PKMYT1 vs. WEE1 selectivity” value is recorded as “W (10-<100 fold)”.
For the molecule `Cc1ccc(O)c(C)c1NC(=O)c1cnc(Nc2nc3ccccc3o2)s1` [BAA-044, 2-(1,3-benzoxazol-2-ylamino)-N-(3-hydroxy-2,6-dimethyl-phenyl)thiazole-5-carboxamide], the negative logarithm of the IC50 (pIC50) was 6.00 to 7.30 on Human PKMYT1 (setting [1]) and less than 4.96 against WEE1 (setting [2]). In addition, the “PKMYT1 vs. WEE1 selectivity” value on WEE1 (setting [3]) is on record as “>X (100-<1000 fold)”.
Regarding `Cc1ccc(O)c(C)c1NC(=O)c1cnc(Nc2n[nH]c3cc(F)cc(F)c23)s1` [BAA-452, 2-((4,6-difluoro-1H-indazol-3-yl)amino)-N-(3-hydroxy-2,6-dimethylphenyl)thiazole-5-carboxamide], the negative logarithm of the IC50 (pIC50) at Human PKMYT1 (setting [4]) was 6.00 to 7.30; at WEE1 (WEE1 15 nM, banded values) it was less than 4.96. The “PKMYT1 vs. WEE1 selectivity” value at WEE1 (banded) is “X (100-<1000 fold)”.
The like results for `CCN(CCC#N)C(=O)Cn1cc(C)c(Nc2ncc(C(=O)Nc3c(C)ccc(O)c3C)s2)n1` [BAA-532, 2-((1-(2-((2-cyanoethyl)(ethyl)amino)-2-oxoethyl)-4-methyl-1H-pyrazol-3-yl)amino)-N-(3-hydroxy-2,6-dimethylphenyl)thiazole-5-carboxamide] were, in that order, greater than 7.30, 4.96 to 6.00 and “X (100-<1000 fold)”.

Source of the values: US20260297042A1, “BIARYLAMIDE DERIVATIVES AND THEIR USE AS PKMYT1 INHIBITORS” (CANCER RESEARCH TECHNOLOGY LIMITED, priority 2023, published 2026).
